Experimental data: ChEMBL document CHEMBL1201862, “PubChem BioAssay data set” (2004)
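These data come from cells grown in 96-well plates and exposed to compound for 48 hours at five concentrations. The concentration for 50% growth inhibition is given as GI50.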 The source made the active and inactive calls. Cut-off read from the data, not from the text of the source: active = GI50 up to about 1.1 µM and inactive = higher.

Tests used:
Assay in all cases: NCI anticancer screen, dose series, 48 h
RXF 393 = system: RXF 393
CCRF-CEM = system: CCRF-CEM
NCI-H23 = system: NCI-H23
RPMI-8226 = system: RPMI-8226
LOX IMVI = system: LOX IMVI
SR = system: SR
HL-60 = system: HL-60
SN12C = system: SN12C
SF-539 = system: SF-539
HCC 2998 = system: HCC 2998
ACHN = system: ACHN
SNB-19 = system: SNB-19
SF-268 = system: SF-268
HCT-15 = system: HCT-15
UACC-257 = system: UACC-257
MOLT-4 = system: MOLT-4
PC-3 = system: PC-3
MDA-N = system: MDA-N
SK-OV-3 = system: SK-OV-3
A498 = system: A498
U-251 = system: U-251
HT-29 = system: HT-29
SNB-75 = system: SNB-75
786-0 = system: 786-0
OVCAR-5 = system: OVCAR-5
HCT-116 = system: HCT-116
COLO 205 = system: COLO 205
SK-MEL-28 = system: SK-MEL-28
SK-MEL-2 = system: SK-MEL-2
NCI/ADR-RES = system: NCI/ADR-RES
UO-31 = system: UO-31
K562 = system: K562
TK-10 = system: TK-10
BT-549 = system: BT-549
HOP-62 = system: HOP-62
OVCAR-4 = system: OVCAR-4
SK-MEL-5 = system: SK-MEL-5
EKVX = system: EKVX
UACC-62 = system: UACC-62
DU-145 = system: DU-145
NCI-H522 = system: NCI-H522
SW-620 = system: SW-620
SF-295 = system: SF-295
IGROV-1 = system: IGROV-1
MDA-MB-435 = system: MDA-MB-435
A549 = system: A549
OVCAR-3 = system: OVCAR-3
KM12 = system: KM12
Hs-578T = system: Hs-578T
OVCAR-8 = system: OVCAR-8
HOP-92 = system: HOP-92
M14 = system: M14
NCI-H226 = system: NCI-H226
Malme-3M = system: Malme-3M
MDA-MB-231 = system: MDA-MB-231
MCF7 = system: MCF7
NCI-H460 = system: NCI-H460
CAKI-1 = system: CAKI-1

CCOC(=O)C(O)(NC(=O)NC(O)(C(=O)OCC)C(F)(F)F)C(F)(F)F (stereo not drawn)
GI50 (RXF 393): > 100 µM (inactive)
GI50 (CCRF-CEM): > 100 µM (inactive)
GI50 (NCI-H23): > 100 µM (inactive)
GI50 (RPMI-8226): > 100 µM (inactive)
GI50 (LOX IMVI): > 100 µM (inactive)
GI50 (SR): > 100 µM (inactive)
GI50 (HL-60): > 100 µM (inactive)
GI50 (SN12C): > 100 µM (inactive)
GI50 (SF-539): > 100 µM (inactive)
GI50 (HCC 2998): > 100 µM (inactive)
GI50 (ACHN): > 100 µM (inactive)
GI50 (SNB-19): > 100 µM (inactive)
GI50 (SF-268): > 100 µM (inactive)
GI50 (HCT-15): > 100 µM
GI50 (UACC-257): > 100 µM (inactive)
GI50 (MOLT-4): > 100 µM (inactive)
GI50 (PC-3): > 100 µM (inactive)
GI50 (MDA-N): > 100 µM (inactive)
GI50 (SK-OV-3): > 100 µM (inactive)
GI50 (A498): > 100 µM (inactive)
GI50 (U-251): > 100 µM (inactive)
GI50 (HT-29): > 100 µM (inactive)
GI50 (SNB-75): > 100 µM (inactive)
GI50 (786-0): > 100 µM (inactive)
GI50 (OVCAR-5): > 100 µM (inactive)
GI50 (HCT-116): > 100 µM (inactive)
GI50 (COLO 205): > 100 µM (inactive)
GI50 (SK-MEL-28): > 100 µM (inactive)
GI50 (SK-MEL-2): > 100 µM (inactive)
GI50 (NCI/ADR-RES): > 100 µM (inactive)
GI50 (UO-31): > 100 µM (inactive)
GI50 (K562): > 100 µM (inactive)

COc1cc2c[n+](C)c3c4cc(OC)c(OC)cc4ccc3c2cc1OC
GI50 (TK-10): > 100 µM (inactive)
GI50 (CCRF-CEM): 18.8 µM (inactive)
GI50 (RPMI-8226): 57.1 µM (inactive)
GI50 (LOX IMVI): 54 µM (inactive)
GI50 (BT-549): 20.4 µM (inactive)
GI50 (HOP-62): 97.7 µM (inactive)
GI50 (OVCAR-4): > 38.5 µM (inactive)
GI50 (SK-MEL-5): 32 µM (inactive)
GI50 (EKVX): > 63 µM (inactive)
GI50 (UACC-62): > 82.8 µM (inactive)
GI50 (UACC-257): 74.1 µM (inactive)
GI50 (DU-145): 25 µM (inactive)
GI50 (PC-3): 74.1 µM (inactive)
GI50 (SK-OV-3): 88.9 µM (inactive)
GI50 (A498): > 100 µM (inactive)
GI50 (NCI-H522): 7.11 µM (inactive)
GI50 (SW-620): > 66.1 µM (inactive)
GI50 (786-0): > 58.5 µM (inactive)
GI50 (SF-295): 69 µM (inactive)
GI50 (OVCAR-5): > 100 µM (inactive)
GI50 (HCT-116): 68.5 µM (inactive)
GI50 (COLO 205): 11.8 µM (inactive)
GI50 (IGROV-1): 23 µM (inactive)
GI50 (MDA-MB-435): > 85.7 µM (inactive)
GI50 (A549): 58.7 µM (inactive)
GI50 (OVCAR-3): 29.3 µM (inactive)
GI50 (K562): 16.6 µM (inactive)

CCC(C)C(Nc1c2ccccc2nc2c(C(=O)NCCN(C)C)cccc12)C(=O)O (stereo not drawn)
GI50 (TK-10): 38.5 µM (inactive)
GI50 (CCRF-CEM): 24.3 µM (inactive)
GI50 (NCI-H23): 20.2 µM (inactive)
GI50 (RPMI-8226): 28.8 µM (inactive)
GI50 (KM12): 14.8 µM (inactive)
GI50 (LOX IMVI): 4.8 µM (inactive)
GI50 (Hs-578T): 18.4 µM (inactive)
GI50 (SR): 46.6 µM (inactive)
GI50 (SN12C): 13.6 µM (inactive)
GI50 (OVCAR-8): 4.45 µM (inactive)
GI50 (HOP-62): 13 µM (inactive)
GI50 (OVCAR-4): 5.83 µM (inactive)
GI50 (SK-MEL-5): 15.7 µM (inactive)
GI50 (ACHN): 7.94 µM (inactive)
GI50 (HOP-92): 11.8 µM (inactive)
GI50 (EKVX): 16.2 µM (inactive)
GI50 (UACC-62): 15.9 µM (inactive)
GI50 (SNB-19): 8.28 µM (inactive)
GI50 (M14): 16.2 µM (inactive)
GI50 (SF-268): 13.6 µM (inactive)
GI50 (HCT-15): 7.45 µM
GI50 (DU-145): 38.1 µM (inactive)
GI50 (MOLT-4): 7.59 µM (inactive)
GI50 (PC-3): 14 µM (inactive)
GI50 (NCI-H226): 6.92 µM (inactive)
GI50 (MDA-N): 17.2 µM (inactive)
GI50 (SK-OV-3): 22 µM (inactive)
GI50 (A498): 16.9 µM (inactive)
GI50 (NCI-H522): 12.7 µM (inactive)
GI50 (U-251): 25.2 µM (inactive)
GI50 (SW-620): 9.16 µM (inactive)
GI50 (HT-29): 3.21 µM (inactive)
GI50 (SNB-75): 18 µM (inactive)
GI50 (786-0): 9.89 µM (inactive)
GI50 (SF-295): 12.3 µM (inactive)
GI50 (OVCAR-5): 21.3 µM (inactive)
GI50 (HCT-116): 4.28 µM (inactive)
GI50 (Malme-3M): 12.3 µM (inactive)
GI50 (MDA-MB-231): 17.6 µM (inactive)
GI50 (COLO 205): 6.15 µM (inactive)
GI50 (SK-MEL-28): 23.6 µM (inactive)
GI50 (IGROV-1): 14.7 µM (inactive)
GI50 (SK-MEL-2): 19.4 µM (inactive)
GI50 (MCF7): 5.86 µM (inactive)
GI50 (NCI/ADR-RES): 10.4 µM (inactive)
GI50 (MDA-MB-435): 18.1 µM (inactive)
GI50 (A549): 12.3 µM (inactive)
GI50 (OVCAR-3): 23.6 µM (inactive)
GI50 (UO-31): 8.83 µM (inactive)
GI50 (K562): 21.6 µM (inactive)

[O-][n+]1onc(-c2ccccc2)c1-c1no[n+]([O-])c1-c1c(-c2ccccc2)no[n+]1[O-]
GI50 (RXF 393): 3.35 µM (inactive)
GI50 (TK-10): 44.5 µM (inactive)
GI50 (CCRF-CEM): 5.18 µM (inactive)
GI50 (NCI-H23): 3.72 µM (inactive)
GI50 (RPMI-8226): 3.03 µM (inactive)
GI50 (KM12): 7.43 µM (inactive)
GI50 (LOX IMVI): 2.82 µM (inactive)
GI50 (Hs-578T): 54.1 µM (inactive)
GI50 (SR): 2.7 µM (inactive)
GI50 (HL-60): 2.43 µM (inactive)
GI50 (SN12C): 7.67 µM (inactive)
GI50 (OVCAR-8): 24.1 µM (inactive)
GI50 (HOP-62): 14.9 µM (inactive)
GI50 (SF-539): 21 µM (inactive)
GI50 (HCC 2998): 74.1 µM (inactive)
GI50 (OVCAR-4): 2.94 µM (inactive)
GI50 (SK-MEL-5): 14.8 µM (inactive)
GI50 (ACHN): 4.81 µM (inactive)
GI50 (HOP-92): 10.6 µM (inactive)
GI50 (EKVX): 37.2 µM (inactive)
GI50 (UACC-62): 12.6 µM (inactive)
GI50 (SNB-19): 27 µM (inactive)
GI50 (M14): 12.1 µM (inactive)
GI50 (SF-268): 12.6 µM (inactive)
GI50 (NCI-H460): 3.27 µM (inactive)
GI50 (UACC-257): 13.1 µM (inactive)
GI50 (DU-145): 9.89 µM (inactive)
GI50 (MOLT-4): 3.56 µM (inactive)
GI50 (PC-3): 2.47 µM (inactive)
GI50 (NCI-H226): 15.2 µM (inactive)
GI50 (MDA-N): 2.58 µM (inactive)
GI50 (SK-OV-3): 43.8 µM (inactive)
GI50 (A498): 13.9 µM (inactive)
GI50 (NCI-H522): 18.8 µM (inactive)
GI50 (CAKI-1): 12.8 µM (inactive)
GI50 (SW-620): 4.1 µM (inactive)
GI50 (HT-29): 3.62 µM (inactive)
GI50 (SNB-75): 2.52 µM (inactive)
GI50 (786-0): 8.93 µM (inactive)
GI50 (SF-295): 24.8 µM (inactive)
GI50 (OVCAR-5): 18.6 µM (inactive)
GI50 (HCT-116): 3.3 µM (inactive)
GI50 (Malme-3M): 20.4 µM (inactive)
GI50 (MDA-MB-231): 15.8 µM (inactive)
GI50 (COLO 205): 6.37 µM (inactive)
GI50 (SK-MEL-28): 33.7 µM (inactive)
GI50 (IGROV-1): 8.83 µM (inactive)
GI50 (MCF7): 3.23 µM (inactive)
GI50 (NCI/ADR-RES): 3.98 µM (inactive)
GI50 (MDA-MB-435): 2.34 µM (inactive)
GI50 (A549): 23.1 µM (inactive)
GI50 (OVCAR-3): 5.71 µM (inactive)
GI50 (UO-31): 7.4 µM (inactive)
GI50 (K562): 2.51 µM (inactive)
